Data on 14 compounds can be found in PubChem BioAssay (NCI).

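Following 48 hours of exposure in 96-well plates, responses at five concentrations were used to interpolate endpoints linearly. TGI denotes the concentration required for complete inhibition of growth.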

Assay in all cases: NCI anticancer screen, dose series, 48 h
For assay [1], the system named is A498 renal.
In assay [2] the test system is ACHN renal.
Assay [3] has as its system BT-549 breast.
In assay [4] the test system is CCRF-CEM leukemia.
The subject of assay [5] is DU-145 prostate.
The subject of assay [6] is EKVX NSCLC.
The subject of assay [7] is HS 578T breast.
Assay [8] concerns M14 melanoma.
For assay [9], the system named is MDA-MB-231 breast.
Assay [10] concerns MDA-MB-435.
The test system of assay [11] is MDA-N.
Assay [12] deals with NCI-H226 lung.
Assay [13] relates to OVCAR-5 ovarian.
Assay [14] deals with RPMI-8226 leukemia.
The test system of assay [15] is SF-539 CNS.
Assay [16] deals with SK-MEL-2 melanoma.
For assay [17], the system named is SK-MEL-5 melanoma.
Assay [18] relates to SNB-19 CNS.
For assay [19], the system named is U251 CNS.
Assay [20] deals with UACC-257 melanoma.

Consider `COc1cc2cc(C(=O)Nc3cc4n(n3)-c3ccccc3C4)[nH]c2c(OC)c1OC`, for which the TGI in [1] was 50 µM; in [2], 17.6 µM; in assay [3] it was 3.57 µM; in [4], 3.42 µM; in assay [5], 14.3 µM; in assay [6], 11.5 µM. Also, the TGI in [7] came out at 16.4 µM; in [8], 6.86 µM; in [9], 19.3 µM; in assay [10], 5.28 µM; in assay [11] it was 8.52 µM; in assay [12] it was 3.95 µM. Further, the TGI stood at 17.8 µM in assay [13]; 3.14 µM in [14]; 17.8 µM in assay [15]; 8.39 µM in [16]; 5.23 µM in assay [17]; 27.6 µM in assay [18]. Also, the TGI in [19] is 22.7 µM; in assay [20], 9.26 µM.
With `CC1=NNC(=O)C1C1CC(c2c[nH]c3ccccc23)=NN(C(N)=O)C1=O` (stereo not given), the TGI in [1], in assay [2], in assay [3], in assay [4], in assay [5] and in [6] was greater than 100 µM throughout. Further, the TGI in assay [7], in [8], in assay [9], in assay [10], in [11] and in [12] was greater than 100 µM throughout. For the same compound, the TGI in assay [13], in assay [14], in assay [15], in [16], in assay [17] and in assay [18] was greater than 100 µM throughout. In addition, the TGI in assay [19] and in [20] was greater than 100 µM each time.
Consider `C#C/C=C\CCCCCCCCCCCCCC/C=C\CCCCC#CC(O)C#CCCCC/C=C\CCCCCC/C=C/C(O)C#C` (stereo not given), for which the TGI in [1] was 74.4 µM; in assay [2], greater than 75 µM; in [3] it was greater than 75 µM; in [4], greater than 47.5 µM; in [5], greater than 75 µM; in [6], 35.9 µM. Further, the TGI in assay [7] was greater than 75 µM; in [8], greater than 38.3 µM; in [9], greater than 75 µM; in [10] it was 17.2 µM; in [11] it was 24.2 µM; in [12] it was greater than 59.4 µM. For the same compound, the TGI was greater than 75 µM in assay [13]; greater than 75 µM in [15]; 37.1 µM in [16]; 17.6 µM in assay [17]; greater than 75 µM in assay [18]; greater than 75 µM in assay [19]. In [20], this compound gave a TGI greater than 63.4 µM.
Take `Cc1c2c(OCC(O)CN3CCN(c4ccccc4)CC3)nn(C)c(=O)c2c(C)n1-c1ccccc1` (stereo not given): the TGI in assay [1] is 58.6 µM; in [2], 49.6 µM; in [3], 47.6 µM; in assay [4], greater than 100 µM; in assay [5] it was greater than 100 µM; in assay [6], greater than 100 µM. Also, the TGI stood at 65.9 µM in assay [7]; 30.7 µM in [8]; 69.6 µM in assay [9]; 91.8 µM in assay [10]; 35.4 µM in [11]; 54.5 µM in [12]. Also, the TGI in assay [13] was 62 µM; in assay [14] it was 52.5 µM; in assay [15] it was 33.6 µM; in assay [16] it was 33.1 µM; in [17], 30.3 µM; in assay [18], greater than 100 µM. For the same compound, the TGI in assay [19] was 30.2 µM; in assay [20], 72.1 µM.
As for `CC1=NC2c3c(-c4ccc(Cl)cc4)cn(-c4ccc(C)cc4)c3N=CN2N1` (stereo not given), the TGI in [1], in [2], in assay [3], in [4], in assay [5] and in assay [6] was greater than 100 µM each time. Also, the TGI in assay [7] was 38.4 µM; in assay [8] it was greater than 100 µM; in [9], greater than 100 µM; in [10], greater than 100 µM; in [11], greater than 100 µM; in [12] it was greater than 100 µM. For the same compound, the TGI in [13], in assay [15], in [16], in assay [17], in assay [18] and in [19] was greater than 100 µM throughout. Further, the TGI in assay [20] was greater than 100 µM.
In the case of `NC(=O)c1cccc(N=c2oc3ccc(Br)cc3cc2-c2nc3ccccc3[nH]2)c1`, the TGI in assay [1] was found to be 35.8 µM; in assay [2] it was 32.2 µM; in assay [3], 30.4 µM; in [4], 17.3 µM; in assay [5], 28.9 µM; in assay [6] it was 32.6 µM. The TGI in [7] was 74.5 µM; in assay [8] it was 32.3 µM; in assay [9], 25 µM; in assay [10] it was 39.4 µM; in assay [11], 38.1 µM; in assay [12] it was 24.2 µM. The TGI in assay [13] was 30.2 µM; in assay [14], 53.4 µM; in assay [15], 14.4 µM; in assay [16], 38.5 µM; in [17], 11.3 µM; in assay [18], 28.5 µM. In addition, the TGI came out at 31 µM in assay [19] and 43.4 µM in assay [20].
Consider `CC1(C)CC(=O)C2=C(C1)NC1=C(C2)C(=O)CC(C)(C)C1`, for which the TGI in assay [1], in [2], in assay [3], in assay [4], in [5] and in assay [6] was greater than 100 µM in each case. Further, the TGI in [7], in [8], in assay [9], in assay [10], in assay [11] and in assay [12] was greater than 100 µM in each case. Besides, the TGI in assay [13], in assay [14], in [15], in assay [17], in assay [18] and in assay [19] was greater than 100 µM each time. The compound also showed a TGI in assay [20] greater than 100 µM.
Turning to `O[C@H]1[C@H](O)[C@@H](O)[C@@]2(O)CC[C@@H]1N2`, the TGI in [1], in assay [2], in [3], in assay [4], in assay [5] and in [6] was greater than 100 µM each time. The TGI in assay [7], in assay [8], in assay [9], in assay [10], in assay [11] and in [12] was greater than 100 µM each time. For the same compound, the TGI in assay [13] is greater than 100 µM; in [14], greater than 52.4 µM; in assay [15], greater than 100 µM; in [16], greater than 100 µM; in assay [17], greater than 100 µM; in assay [18] it was greater than 100 µM. Moreover, the TGI in [19] and in assay [20] was greater than 100 µM in each case.
With `C=CCN1C[C@H](C)N([C@@H](c2ccc(C(=O)N3CCCCC3)cc2)c2cccc(OC)c2)C[C@H]1C`, the TGI in assay [1] was greater than 100 µM; in assay [2], greater than 100 µM; in assay [3], greater than 100 µM; in [4], 70.4 µM; in assay [5] it was greater than 100 µM; in [6], greater than 100 µM. The TGI in [7] is greater than 100 µM; in [8], 34.9 µM; in assay [9] it was greater than 100 µM; in assay [10], greater than 100 µM; in [11], greater than 100 µM; in assay [12], greater than 100 µM. Moreover, the TGI in assay [13] is greater than 100 µM; in assay [15] it was 67.7 µM; in assay [16], 60.3 µM; in assay [17], 33.6 µM; in assay [18] it was greater than 100 µM; in assay [19], greater than 100 µM. For the same compound, in [20], the TGI amounted to 50 µM.
Regarding `N#Cc1ccc(N2CCOCC2)cc1`, the TGI in assay [1], in assay [2], in assay [3], in [4], in [5] and in [6] was greater than 100 µM each time. For the same compound, the TGI in assay [7], in assay [8], in [9], in [10], in [11] and in [13] was greater than 100 µM throughout. Further, the TGI in assay [15], in assay [16], in assay [17], in assay [18], in [19] and in [20] was greater than 100 µM throughout.
As to `Cc1ccc(N=NC(=Nc2ccc(Cl)cc2)c2ccc(N(CCC#N)CCC#N)cc2)cc1`, the TGI in [1], in assay [2], in assay [3], in [4], in assay [5] and in assay [6] was greater than 100 µM throughout. Besides, the TGI in assay [7] is greater than 100 µM; in assay [8], greater than 100 µM; in assay [9], 81.8 µM; in assay [10], greater than 100 µM; in assay [11] it was greater than 100 µM; in [12], greater than 100 µM. For the same compound, the TGI in assay [13] is greater than 100 µM; in [14], greater than 100 µM; in [15] it was greater than 100 µM; in assay [17], greater than 100 µM; in [18] it was greater than 100 µM; in [19], 59.5 µM. The TGI in assay [20] came out at 76.1 µM.
Take `Cc1ccc([N+](=O)[O-])cc1S(=O)(=O)Nc1ccc(C2=NOC(c3cccs3)C2)cc1` (stereo not given): the TGI was found to be 36.7 µM in [1]; 46.3 µM in [2]; 41 µM in assay [3]; 50.2 µM in [4]; 52.7 µM in [5]; 65 µM in assay [6]. In addition, the TGI in [7] was 83 µM; in assay [8], 20.8 µM; in [9] it was greater than 100 µM; in [10] it was 10.4 µM; in assay [11], 10.4 µM; in [12], greater than 100 µM. Moreover, the TGI in assay [13] is greater than 100 µM; in assay [14] it was 94.5 µM; in assay [15], 56.5 µM; in assay [16], 28.3 µM; in [17], 22.5 µM; in [18], 53.1 µM. In assay [20], this compound displayed a TGI of 49.6 µM.
As for `O=C(OCc1ccc([N+](=O)[O-])cc1)N1c2ccccc2[C@@]23O[C@]24CCC[C@H]3C#C/C=C\C#C[C@H]14`, the TGI in assay [1], in assay [2], in assay [3], in [4], in assay [5] and in assay [6] was greater than 100 µM in each case. Besides, the TGI in assay [7], in assay [8], in [9], in assay [10], in [11] and in assay [12] was greater than 100 µM in each case. Also, the TGI in assay [13], in assay [15], in assay [16], in assay [17], in [18] and in assay [19] was greater than 100 µM throughout. Moreover, the TGI in [20] is greater than 100 µM.
Consider `Cc1cc(C)c(O)c(CN2CCN(C(C)C)CCN(C(C)C)CC2)c1`, for which the TGI is greater than 100 µM in [1]; greater than 100 µM in assay [2]; 54 µM in assay [3]; 83.9 µM in assay [4]; greater than 100 µM in assay [5]; greater than 100 µM in assay [6]. The TGI in assay [7] was greater than 100 µM; in assay [8] it was 26.2 µM; in assay [9] it was greater than 100 µM; in assay [10] it was 64.4 µM; in assay [11] it was 68.3 µM; in [12], greater than 100 µM. The TGI in assay [13] was greater than 100 µM; in assay [14], greater than 100 µM; in assay [15], 30.8 µM; in assay [16] it was greater than 100 µM; in assay [18], greater than 100 µM; in assay [19], greater than 100 µM. Further, in assay [20], the TGI turned out to be 35.5 µM.
